This note sets out measurements from PubChem BioAssay AID296 (DTP/NCI, 2004).

“And” between values parts separate entries of the source, which are not always exact repeats. Equal values may be shown once. Records with an inconclusive call do not appear.

The subject of this test is MX-1 breast xenograft, nude mice, tumor weight T/C. In words: NCI In Vivo Anticancer Drug Screen. Data for tumor model Human Mammary Carcinoma MX-1 Xenograft (intrarenal inoculation) in NU/NU Swiss (nude) mice. The note with it: endpoint: mean tumor weight change, higher = larger tumour. An outline of the steps:
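Activity is given as a ratio, with each measurement in the compound-treated arm divided by the matching measurement in vehicle-dosed controls. Tumour size or survival serves as the measured parameter.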

The mark [1] stands for this setting: dose: 300.0 mg/kg/injection, schedule: Q04DX003 (sc), vehicle: Klucel (hydroxypropylcellulose) (HPC).
Setting [2] is: dose: 600.0 mg/kg/injection, schedule: Q04DX003 (sc), vehicle: Klucel (hydroxypropylcellulose) (HPC).
Setting [3] is: dose: 1200.0 mg/kg/injection, schedule: Q04DX003 (sc), vehicle: Klucel (hydroxypropylcellulose) (HPC).
[4] abbreviates: dose: 2400.0 mg/kg/injection, schedule: Q04DX003 (sc), vehicle: Klucel (hydroxypropylcellulose) (HPC).
Where [5] appears, read: dose: 150.0 mg/kg/injection, schedule: Q04DX003 (sc), vehicle: Klucel (hydroxypropylcellulose) (HPC).
The mark [6] stands for this setting: dose: 200.0 mg/kg/injection, schedule: Q04DX003 (sc), vehicle: saline with Tween-80.
Setting [7] is: dose: 400.0 mg/kg/injection, schedule: Q04DX003 (sc), vehicle: saline with Tween-80.
The mark [8] stands for this setting: dose: 800.0 mg/kg/injection, schedule: Q04DX003 (sc), vehicle: saline with Tween-80.
Setting [9] is: dose: 75.0 mg/kg/injection, schedule: Q04DX003 (sc), vehicle: Klucel (hydroxypropylcellulose) (HPC).

Consider `COP12(OCCO1)SC(C(F)(F)F)=C(C(F)(F)F)S2`, for which the T/C runs as follows: (dose: 125.0 mg/kg/injection, schedule: Q04DX003 (sc), vehicle: saline with Tween-80) 119 % of control; (dose: 250.0 mg/kg/injection, schedule: Q04DX003 (sc), vehicle: saline with Tween-80) 92 % of control.
For the compound `COc1cc([C@@H]2c3cc4c(cc3[C@@H](OC3OC5CO[C@@H](c6cccs6)OC5C(O)C3O)[C@H]3COC(=O)[C@H]23)OCO4)cc(OC)c1O` (stereo not given in full), the T/C is 67 % of control (dose: 8.0 mg/kg/injection, schedule: Q01DX010 (sc), vehicle: saline); 60 % of control (dose: 16.0 mg/kg/injection, schedule: Q01DX010 (sc), vehicle: saline); 96 % of control (dose: 32.0 mg/kg/injection, schedule: Q01DX010 (sc), vehicle: saline); 44 % of control (dose: 64.0 mg/kg/injection, schedule: Q01DX010 (sc), vehicle: saline); 55 % of control (dose: 66.0 mg/kg/injection, schedule: Q01DX010 (sc), vehicle: saline); 34 % of control (dose: 132.0 mg/kg/injection, schedule: Q01DX010 (sc), vehicle: saline). Further, the T/C (dose: 264.0 mg/kg/injection, schedule: Q01DX010 (sc), vehicle: saline) was 40 % of control and the T/C (dose: 528.0 mg/kg/injection, schedule: Q01DX010 (sc), vehicle: saline) is 79 % of control.
`O=NN(CCCl)C(=O)Oc1cc(Cl)c(Cl)cc1Cl`: the T/C under setting [1] was 64 % of control, the T/C under setting [2] is 35 % of control, the T/C under setting [3] is 21 % of control and the T/C under setting [4] was 33 % of control.
For `COc1cc(C(=O)c2cc3c(cc2C)OCO3)cc(OC)c1OC`, the T/C was 46 % of control under setting [5], 44 % of control under setting [1], 43 % of control under setting [2] and 53 % of control under setting [3].
`CCCC(=O)Nc1ncnc2c1ncn2C1OC2COP(=O)(O)OC2C1OC(=O)CCC` (stereo not given): the T/C is 159 % of control (dose: 200.0 mg/kg/injection, schedule: Q01DX010 (sc), vehicle: saline) and 124 % of control (dose: 400.0 mg/kg/injection, schedule: Q01DX010 (sc), vehicle: saline).
With `NCCCNCCSP(=O)(O)O`, the T/C runs as follows: (dose: 100.0 mg/kg/injection, schedule: Q04DX003 (sc), vehicle: saline) 98 % of control; (dose: 200.0 mg/kg/injection, schedule: Q04DX003 (sc), vehicle: saline) 80 % of control; (dose: 400.0 mg/kg/injection, schedule: Q04DX003 (sc), vehicle: saline) 91 % of control.
In the case of `Cc1ccc(S(=O)(=O)N/N=C/C(Br)=C(/Br)C(=O)O)cc1`, the T/C is 95 % of control (dose: 2.5 mg/kg/injection, schedule: Q04DX003 (sc), vehicle: saline); 100 % of control (dose: 5.0 mg/kg/injection, schedule: Q04DX003 (sc), vehicle: saline); 100 % of control (dose: 10.0 mg/kg/injection, schedule: Q04DX003 (sc), vehicle: saline); 78 % of control (dose: 20.0 mg/kg/injection, schedule: Q04DX003 (sc), vehicle: saline); 80 % of control under setting [5]; 71 % of control under setting [1]. Moreover, under setting [2], the T/C is 26 % of control.
For `Nc1ccc2nc3ccc(N)cc3[n+](-c3ccccc3)c2c1`, the T/C was 65 % of control (dose: 18.0 mg/kg/injection, schedule: Q04DX003 (sc), vehicle: saline); 119 % of control (dose: 36.0 mg/kg/injection, schedule: Q04DX003 (sc), vehicle: saline); 72 % of control (dose: 72.0 mg/kg/injection, schedule: Q04DX003 (sc), vehicle: saline); 59 % of control (dose: 144.0 mg/kg/injection, schedule: Q04DX003 (sc), vehicle: saline).
With `O=C1CN(CO)C(=O)N1CO`, the T/C was 93 % of control (dose: 100.0 mg/kg/injection, schedule: Q04DX003 (ip), vehicle: saline); 67 % of control (dose: 200.0 mg/kg/injection, schedule: Q04DX003 (ip), vehicle: saline); 28 % of control (dose: 400.0 mg/kg/injection, schedule: Q04DX003 (ip), vehicle: saline).
`CS(=O)(=O)OCCN(CCOS(C)(=O)=O)c1ccc(C=Nc2ccc(-c3csc(COc4ccccc4)n3)cc2)cc1`: the T/C is 37 % of control (dose: 50.0 mg/kg/injection, schedule: Q01DX010 (sc), vehicle: Klucel (hydroxypropylcellulose) (HPC)); -18 % of control (dose: 100.0 mg/kg/injection, schedule: Q01DX010 (sc), vehicle: Klucel (hydroxypropylcellulose) (HPC)); -84 % of control (dose: 200.0 mg/kg/injection, schedule: Q01DX010 (sc), vehicle: Klucel (hydroxypropylcellulose) (HPC)).
On to `Cc1ccc2c(c1)N=C(Nc1ccccc1)N=S2(C)=O` (stereo not given), for which the T/C is, setting by setting: (dose: 100.0 mg/kg/injection, schedule: Q04DX003 (sc), vehicle: saline with Tween-80) 79 % of control; under setting [6], 78 % of control; under setting [7], 75 % of control; under setting [8], 60 % of control.
Regarding `C/C=C(\C)c1cc(=O)c2c(C)cc3c(c2o1)C(=O)c1c(O)c(C2CC(C)(N(C)C)C(O)C(C)O2)cc(C2CC(N(C)C)C(O)C(C)O2)c1C3=O` (stereo not given), the T/C (dose: 2.0 mg/kg/injection, schedule: Q04DX003 (sc), vehicle: saline) is 41 % of control; the T/C (dose: 4.0 mg/kg/injection, schedule: Q04DX003 (sc), vehicle: saline) is 24 % of control; the T/C (dose: 8.0 mg/kg/injection, schedule: Q04DX003 (sc), vehicle: saline) was 28 % of control.
On to `CN1C(=O)CC2(CCN(CCCC(=O)c3ccc(F)cc3)CC2)C1=O`, for which the T/C is, setting by setting: (dose: 37.5 mg/kg/injection, schedule: Q04DX003 (sc), vehicle: suspension in saline) 61 % of control; (dose: 150.0 mg/kg/injection, schedule: Q04DX003 (sc), vehicle: suspension in saline) 85 % of control.
Turning to `O=S(=O)(c1ccccc1)N1CN2CCN(C2)C1`, the T/C reads like this: under setting [6], 58 % of control; under setting [7], 81 % of control; under setting [8], 65 % of control; (dose: 1600.0 mg/kg/injection, schedule: Q04DX003 (sc), vehicle: saline with Tween-80) 48 % of control.
Turning to `COc1cc2cc(c1Cl)N(C)C(=O)CC(OC(=O)CC(C)C)C1(C)OC1C(C)C1CC(O)(NC(=O)O1)C(OC)/C=C/C=C(C)C2` (stereo not given), the T/C is, setting by setting: (dose: 25.0 micrograms/kg/injection, schedule: Q01DX010 (sc), vehicle: saline + alcohol) -12 % of control; (dose: 100.0 micrograms/kg/injection, schedule: Q01DX010 (sc), vehicle: saline + alcohol) -54 % of control.
Consider `Cc1c(-c2ccc(C3CCCCC3)cc2)nc2ccc(F)cc2c1C(=O)O`, for which the T/C was 86 % of control under setting [1], 75 % of control under setting [2], 80 % of control under setting [3] and 96 % of control under setting [4].
Turning to `CCCCCC[Se][Se]CCCCCC`, the T/C under setting [9] is 98 % of control; the T/C under setting [5] was 80 % of control; the T/C under setting [1] was 102 % of control and 114 % of control.
`O=C(O)CSc1c(Cl)c(=O)oc2ccc(Cl)cc12`: the T/C was 87 % of control under setting [9]; 61 % of control and 75 % of control under setting [5]; 54 % of control and 62 % of control under setting [1].
